According to patent US20240124938A1, “VISUAL DETECTION OF PBD INDUCED DNA CROSSLINKS” (INSERM (INSTITUT NATIONAL DE LA SANTÉ ET DE LA RECHERCHE …, priority 2019, published 2024):

Tested on: DNA crosslinks in mouse bone marrow cells
Test: Detection of SJG-136-click in mouse bone marrow by confocal microscopy (click labelling of DNA crosslinks)
Format: in vivo
Conditions: mice treated 0.3 mg/kg, 45 minutes; for click-647 (Alexa Fluor 647 azide) signal observed by confocal imaging: sites of reticulation (DNA crosslinks): 10 μm bone marrow sections of femur/tibia, click-it solution with Alexa Fluor 647 azide, FIG. 1 middle column
Protocol: FIG. 1 represents confocal microscopy observations of samples of mice bone marrow in mouse femur tissues treated with 0.3 mg·kg^−1 of either SJG136 (top line of images) (corresponding to a compound outside of the invention) or SJG136-click (bottom line of images) (corresponding to the compound of formula (IV) according to the invention). The nucleus of the sample's cells are identified on the left column by DAPI staining. The middle column represents images obtained by exposing clickable 647 fluorophore (Alexa Fluor™ 647 azide, sold by the company Thermo Fisher) to the samples treated with SJG136 or SJG136-click to detect the SJG136 or SJG136-click. On the right column, observations from the left and middle column are merged. Some of the observable DNA crosslinking are indicated by white arrows in the middle and right cases of the bottom line.
Mice were treated with a compound of formula (IV) according to the invention (0,3 mg/kg) during 45 minutes.
The bone(s) (i.e. femur and tibia) were dissected from the mouse and surrounding muscle(s) were removed. Said bone(s) were immediately fixed with 4% ice-cold PFA solution for 24 hours at 4° C. in a 15 mL conical tube. The bone sample(s) were then washed three times with PBS. Each wash was carried out for 5 minutes at 4° C. with 7 mL of PBS under constant agitation.
A DCAL solution, containing 0.5 M of EDTA, was prepared by dissolving 186.1 g of EDTA in 800 mL of ddH2O with the addition of about 20 g of NaOH pellets to bring the mixture to a pH in the range of 7.4-7.6 by continuous stirring. The volume is adjusted to 1 L and the solution is filtered on a 0.5 μm filter.
A cryoprotectant (CPT) solution (1×) was also prepared by dissolving 200 g of sucrose and 20 g of polyvinylpyrrolidone (PVP) in 700 mL of PBS under constant stirring by a magnetic stirrer. The volume was then adjusted to 1 L and the solution was mixed until a homogeneous solution was obtained. […]

C=C1C[C@H]2C=Nc3cc(OCCCOc4cc5c(cc4OC)C(=O)N4CC(=C)C[C@H]4C=N5)c(OC)cc3C(=O)N2C1 [SJG136, reference compound]
click-647 (Alexa Fluor 647 azide) signal observed by confocal imaging: sites of reticulation (DNA crosslinks): nothing is visible

C#CCC(COc1cc2c(cc1OC)C(=O)N1CC(=C)CC1C=N2)COc1cc2c(cc1OC)C(=O)N1CC(=C)CC1C=N2 (stereo not drawn) [SJG136-click, 8,8′-((2-(prop-2-yn-1-yl)propane-1,3-diyl)bis(oxy))bis(7-methoxy-2-methylene-2,3-dihydro-1H-benzo[e]pyrrolo[1,2-a][1,4]diazepin-5(11aH)-one)]
click-647 (Alexa Fluor 647 azide) signal observed by confocal imaging: sites of reticulation (DNA crosslinks): several light spots, clearly distinct one from the others
localisation of click-647 light spots relative to DAPI-stained nuclei (merged image) (bone marrow sections, merge of DAPI and click-647 images, FIG. 1 right column): all the light spots observed are within the nucleus of cells
